{
  "source": "ChEMBL document CHEMBL4837230",
  "about": "“Thiophene-2-carboxamide derivatives of anthraquinone: A new potent antitumor chemotype” (Eur J Med Chem, 2021)",
  "key": {"NCI-H460": {"tested_on": "NCI-H460", "experiment": "Cytotoxicity in human NCI-H460 cells assessed as reduction in cell viability incubated for 72 hrs by MTT assay", "format": "functional, cell-based", "settings": "NCI-H460, 72 h"}, "K562 [1]": {"tested_on": "K562", "experiment": "Induction of cell cycle arrest in human K562 cells assessed as increase in accumulation at sub-G1 phase at 2.5 uM after 48 hrs by propidium iodide staining based flow cytometric analysis (reference value: 8.4%)", "format": "functional"}, "K562 [2]": {"tested_on": "K562", "experiment": "Induction of cell cycle arrest in human K562 cells assessed as increase in accumulation at sub-G1 phase at 0.5 uM after 48 hrs by propidium iodide staining based flow cytometric analysis (reference value: 8.4%)", "format": "functional"}, "K562 [3]": {"tested_on": "K562", "experiment": "Induction of cell cycle arrest in human K562 cells assessed as increase in accumulation at sub-G1 phase at 0.5 uM after 24 hrs by propidium iodide staining based flow cytometric analysis (reference value: 8.4%)", "format": "functional"}, "HCT-116": {"tested_on": "HCT-116", "experiment": "Cytotoxicity in human HCT-116 cells assessed as reduction in cell viability incubated for 72 hrs by MTT assay", "format": "functional, cell-based", "settings": "HCT-116, 72 h"}, "K562 [4]": {"tested_on": "K562", "experiment": "Cytotoxicity in human K562 cells assessed as reduction in cell viability incubated for 72 hrs by MTT assay", "format": "functional, cell-based", "settings": "K562, 72 h"}, "[5]": {"experiment": "Resistance index, ratio of IC50 for cytotoxicity against p53 knock out human HCT-116 cells to IC50 for cytotoxicity against human HCT-116 cells", "format": "functional"}, "[6]": {"experiment": "Resistance index, ratio of IC50 for cytotoxicity against human K562/4 cells to IC50 for cytotoxicity against human K562 cells", "format": "functional"}, "K562 [7]": {"tested_on": "K562", "experiment": "Cytotoxicity in human K562 cells assessed as reduction in cell viability at 0.5 uM incubated for 72 hrs by propidium iodide staining based flow cytometric analysis", "format": "functional"}, "K562 [8]": {"tested_on": "K562", "experiment": "Cytotoxicity in human K562 cells assessed as reduction in cell viability at 1 uM incubated for 72 hrs by propidium iodide staining based flow cytometric analysis", "format": "functional"}, "K562 [9]": {"tested_on": "K562", "experiment": "Cytotoxicity in human K562 cells assessed as reduction in cell viability at 2.5 uM incubated for 72 hrs by propidium iodide staining based flow cytometric analysis", "format": "functional"}, "K562 [10]": {"tested_on": "K562", "experiment": "Cytotoxicity in human K562 cells assessed as reduction in cell viability at 2.5 uM incubated with compound for 30 mins followed by cell washing and measured after 72 hrs by propidium iodide staining based flow cytometric analysis", "format": "functional", "settings": "0.5 h"}, "K562 [11]": {"tested_on": "K562", "experiment": "Cytotoxicity in human K562 cells assessed as reduction in cell viability at 2.5 uM incubated with compound for 60 mins followed by cell washing and measured after72 hrs by propidium iodide staining based flow cytometric analysis", "format": "functional", "settings": "1 h"}, "K562 [12]": {"tested_on": "K562", "experiment": "Cytotoxicity in human K562 cells assessed as reduction in cell viability at 0.5 uM incubated with compound for 120 mins followed by cell washing and measured after 72 hrs by propidium iodide staining based flow cytometric analysis", "format": "functional", "settings": "2 h"}, "K562 [13]": {"tested_on": "K562", "experiment": "Cytotoxicity in human K562 cells assessed as reduction in cell viability at 1 uM incubated with compound for 120 mins followed by cell washing and measured after 72 hrs by propidium iodide staining based flow cytometric analysis", "format": "functional", "settings": "2 h"}, "K562 [14]": {"tested_on": "K562", "experiment": "Cytotoxicity in human K562 cells assessed as reduction in cell viability at 2.5 uM incubated with compound for 120 mins followed by cell washing and measured after 72 hrs by propidium iodide staining based flow cytometric analysis", "format": "functional", "settings": "2 h"}, "Calf thymus DNA": {"tested_on": "Calf thymus DNA", "experiment": "Binding affinity to calf thymus double strand DNA incubated for 5 mins by spectrophotometry", "format": "nucleic-acid assay", "settings": "Bos taurus"}, "DNA": {"tested_on": "DNA", "experiment": "Binding affinity to pBR322 DNA (unknown origin) at 20 uM after 30 mins by electrophoretic mobility shift assay", "format": "nucleic-acid assay"}, "K562 [15]": {"tested_on": "K562", "experiment": "Induction of cell cycle arrest in human K562 cells assessed as increase in accumulation at sub-G1 phase at 2.5 uM by flow cytometric analysis (reference value: 16.1%)", "format": "functional"}, "K562 [16]": {"tested_on": "K562", "experiment": "Induction of cell cycle arrest in human K562 cells assessed as increase in accumulation at G0/G1 phase at 2.5 uM by flow cytometric analysis (reference value: 60.9%)", "format": "functional"}, "K562 [17]": {"tested_on": "K562", "experiment": "Induction of cell cycle arrest in human K562 cells assessed as increase in accumulation at S phase at 2.5 uM by flow cytometric analysis (reference value: 11.2%)", "format": "functional"}, "K562 [18]": {"tested_on": "K562", "experiment": "Induction of cell cycle arrest in human K562 cells assessed as increase in accumulation at sub-G1 phase at 2.5 uM after 2 hrs by flow cytometric analysis (reference value: 15.2%)", "format": "functional"}, "K562 [19]": {"tested_on": "K562", "experiment": "Induction of cell cycle arrest in human K562 cells assessed as increase in accumulation at S phase at 2.5 uM after 2 hrs by flow cytometric analysis (reference value: 23.1%)", "format": "functional"}, "K562 [20]": {"tested_on": "K562", "experiment": "Induction of cell cycle arrest in human K562 cells assessed as increase in accumulation at sub-G1 phase at 2.5 uM after 4 hrs by flow cytometric analysis (reference value: 14%)", "format": "functional"}, "K562 [21]": {"tested_on": "K562", "experiment": "Induction of cell cycle arrest in human K562 cells assessed as increase in accumulation at S phase at 2.5 uM after 4 hrs by flow cytometric analysis (reference value: 47.1%)", "format": "functional"}, "K562 [22]": {"tested_on": "K562", "experiment": "Induction of cell cycle arrest in human K562 cells assessed as increase in accumulation at G0/G1 phase at 2.5 uM after 6 hrs by flow cytometric analysis (reference value: 14.1%)", "format": "functional"}, "K562 [23]": {"tested_on": "K562", "experiment": "Induction of cell cycle arrest in human K562 cells assessed as increase in accumulation at S phase at 2.5 uM after 6 hrs by flow cytometric analysis (reference value: 37%)", "format": "functional"}, "K562 [24]": {"tested_on": "K562", "experiment": "Induction of cell cycle arrest in human K562 cells assessed as increase in accumulation at G2/M phase at 2.5 uM after 6 hrs by flow cytometric analysis (reference value: 26.8%)", "format": "functional"}, "K562 [25]": {"tested_on": "K562", "experiment": "Induction of mitochondrial membrane potential loss in human K562 cells at 2.5 uM after 6 hrs by Mitotracker Red dye based flow cytometric analysis(reference value: 6.4 %)", "format": "functional"}, "[26]": {"experiment": "Drug localization in cytoplasm of mouse NIH3T3 cells at 1 uM incubated for 5 to 60 mins by laser confocal microscopy", "format": "ADME, cell-based", "settings": "nih3t3, 1 µM, time 5-60 min"}, "[27]": {"experiment": "Drug localization in lysosome of mouse NIH3T3 cells at 1 uM incubated for 5 mins by lyso-tracker red based confocal microscopic method", "format": "ADME, cell-based", "settings": "nih3t3, 5 min"}, "[28]": {"experiment": "Drug localization in mitochondria of mouse NIH3T3 cells at 1 uM measured after 60 mins by MitoTracker red based confocal microscopic method", "format": "ADME", "settings": "nih3t3, 1 h"}, "K562 [29]": {"tested_on": "K562", "experiment": "Induction of apoptosis in human K562 cells assessed as early apoptotic cells after 3 hrs by Annexin V-APC/PI double staining based flow cytometric analysis (reference value: 0.1%)", "format": "functional"}, "K562 [30]": {"tested_on": "K562", "experiment": "Induction of apoptosis in human K562 cells assessed as late apoptotic cells after 3 hrs by Annexin V-APC/PI double staining based flow cytometric analysis (reference value: 2.6%)", "format": "functional"}, "K562 [31]": {"tested_on": "K562", "experiment": "Induction of apoptosis in human K562 cells assessed as necrotic cells after 3 hrs by Annexin V-APC/PI double staining based flow cytometric analysis (reference value: 6.3%)", "format": "functional"}, "K562 [32]": {"tested_on": "K562", "experiment": "Induction of apoptosis in human K562 cells assessed as late apoptotic cells after 24 hrs by Annexin V-APC/PI double staining based flow cytometric analysis (reference value: 2.6%)", "format": "functional"}, "K562 [33]": {"tested_on": "K562", "experiment": "Induction of apoptosis in human K562 cells assessed as activation of PARP cleavage at 2.5 uM measured after 6 hrs by Western blot analysis", "format": "functional, cell-based"}},
  "note": "Calls of active or inactive are those of the source. No cut-off for these calls is given here.",
  "data": [
    {"compound": "N[C@H]1CCN(C(=O)c2cc3c(O)c4c(c(O)c3s2)C(=O)c2ccccc2C4=O)C1", "values": [
      {"measurement": "IC50", "setting": "NCI-H460", "result": 400, "unit": "nM"},
      {"measurement": "Activity", "setting": "K562 [1]", "result": 84.5, "unit": "%"},
      {"measurement": "Activity", "setting": "K562 [2]", "result": 33.2, "unit": "%"},
      {"measurement": "Activity", "setting": "K562 [3]", "result": 18.7, "unit": "%"},
      {"measurement": "IC50", "setting": "HCT-116", "result": 500, "unit": "nM"},
      {"measurement": "IC50", "setting": "K562 [4]", "result": 300, "unit": "nM"},
      {"measurement": "Ratio", "setting": "[5]", "result": 1},
      {"measurement": "Ratio", "setting": "[6]", "result": 1.3},
      {"measurement": "Activity", "setting": "K562 [7]", "result": 77.6, "unit": "%"},
      {"measurement": "Activity", "setting": "K562 [8]", "result": 79.9, "unit": "%"},
      {"measurement": "Activity", "setting": "K562 [9]", "result": 94.8, "unit": "%"},
      {"measurement": "Activity", "setting": "K562 [10]", "result": 67.4, "unit": "%"},
      {"measurement": "Activity", "setting": "K562 [11]", "result": 63.4, "unit": "%"},
      {"measurement": "Activity", "setting": "K562 [12]", "result": 8.7, "unit": "%"},
      {"measurement": "Activity", "setting": "K562 [13]", "result": 56.4, "unit": "%"},
      {"measurement": "Activity", "setting": "K562 [14]", "result": 76.5, "unit": "%"},
      {"measurement": "Activity", "setting": "Calf thymus DNA", "result": "inactive"},
      {"measurement": "Activity", "setting": "DNA", "result": "inactive"},
      {"measurement": "Activity", "setting": "K562 [15]", "result": 14.9, "unit": "%"},
      {"measurement": "Activity", "setting": "K562 [16]", "result": 59.1, "unit": "%"},
      {"measurement": "Activity", "setting": "K562 [17]", "result": 12, "unit": "%"},
      {"measurement": "Activity", "setting": "K562 [18]", "result": 15.9, "unit": "%"},
      {"measurement": "Activity", "setting": "K562 [19]", "result": 27.8, "unit": "%"},
      {"measurement": "Activity", "setting": "K562 [20]", "result": 14.5, "unit": "%"},
      {"measurement": "Activity", "setting": "K562 [21]", "result": 40.1, "unit": "%"},
      {"measurement": "Activity", "setting": "K562 [22]", "result": 31.7, "unit": "%"},
      {"measurement": "Activity", "setting": "K562 [23]", "result": 29.8, "unit": "%"},
      {"measurement": "Activity", "setting": "K562 [24]", "result": 13.9, "unit": "%"},
      {"measurement": "Activity", "setting": "K562 [25]", "result": 33.3, "unit": "%"},
      {"measurement": "Drug uptake", "setting": "[26]", "result": "Active"},
      {"measurement": "Drug uptake", "setting": "[27]", "result": "Active"},
      {"measurement": "Drug uptake", "setting": "[28]", "result": "Active"},
      {"measurement": "Activity", "setting": "K562 [29]", "result": 0.6, "unit": "%"},
      {"measurement": "Activity", "setting": "K562 [30]", "result": 13.2, "unit": "%"},
      {"measurement": "Activity", "setting": "K562 [31]", "result": 38.2, "unit": "%"},
      {"measurement": "Activity", "setting": "K562 [32]", "result": 49.3, "unit": "%"},
      {"measurement": "Activity", "setting": "K562 [33]", "result": "Active"}
    ]}
  ]
}
